Source: patent US8445441B2, “Inhibitors of BCL-2” (Case Western Reserve University, priority 2007, dated 2013)

Assays:
[1] = system: Jurkat cells; assay: anti-CD3-induced Ca2+ elevation by digital imaging; type: cell-based
Method: (§1) FIGS. 6A-D illustrates peptide 2 (SEQ ID NO:3) Reverses Bcl-2's Inhibition of Anti-CD3-Induced Ca^2+Elevation. (A) Representative Ca^2+ traces (each the mean of ˜65 cells) recording anti-CD3 (arrow, time of addition)-induced Ca^2+ elevation in Bcl-2(+) WEHI7.2 cells. Peptide (60 μM) uptake was facilitated by Chariot reagent. (B) Peak anti-CD3 induced Ca^2+ elevation in Bcl-2(−) and Bcl-2(+) WEHI7.2 cells treated with peptides as in (A) [mean±SEM, five experiments for Bcl-2(−) and seven experiments for Bcl-2(+) cells, with mean 68 cells per sample per experiment]. (C) Representative Ca^2+ traces in Jurkat cells (mean 85 cells each). Treatment conditions are the same as in (A), except that a control involving addition of peptide 2 without Chariot reagent has been added. (D) Peak anti-CD3-induced Ca^2+ elevation in Jurkat cells treated with peptides as in (C) (mean±SEM, seven experiments, mean 81 cells per sample per experiment).
(§2) Next we investigated whether peptide 2 also reverses Bcl-2's inhibitory effect on Ca^2+ release through the IP3R in Bcl-2(+) and (−) WEHI7.2 clones, newly derived WEHI7.2 mixed populations exogenously expressing Bcl-2, and Jurkat cells. Optimal conditions for peptide delivery and anti-CD3 concentration were determined in preliminary experiments. Peptide delivery in the lipid bilayer is 100%, whereas the penetration of peptide 2 into cells is much less, accounting for the lesser effect in cells. Therefore, a higher concentration of peptide (60 μM) was delivered into cells using the Chariot delivery reagent. Cytoplasmic Ca^2+ concentration was continuously measured at a single-cell level by digital imaging during anti-CD3 treatment. Representative Ca^2+ traces from Bcl-2(+) WEHI7.2 cells are shown in FIG. 6A, and the average Ca^2+ elevation induced by anti-CD3 in seven experiments is summarized in FIG. 6B. Observed variations in lag phase are at least partially attributable to the fact that lymphocytes are only loosely adherent to coverslips and thus rapid buffer exchange is not possible during antibody additions. Peptide 2 enhanced anti-CD3-induced Ca^2+ elevation in Bcl-2(+) WEHI7.2 cells by 40%. […] Peptide 2 had no effect on Ca^2+ elevation when added to the cells in the absence of the Chariot reagent. […] The low Bcl-2 level in Jurkat cells and the barely detectable endogenous Bcl-2 in Bcl-2(−) WEHI7.2 cells are consistent with the higher amplitude and longer duration of the Ca^2+ response in these cells in contrast to Bcl-2(+) WEHI7.2 cells (compare FIGS. 6A and 6B to FIGS. 6C and 6D). Thus, peptide 2 modulated anti-CD3-induced Ca^2+ elevation in both Bcl-2(+) WEHI7.2 cells and Jurkat cells, consistent with the ability of peptide 2 to disrupt Bcl-2-IP3R interaction.

[2] = system: WEHI7.2 cells; assay: anti-CD3-induced Ca2+ elevation by digital imaging; type: cell-based; conditions: 60 μM peptide with Chariot reagent
Method: as §1, §2

[3] = system: IP3R type 1 channel; assay: single IP3R channel activity in planar lipid bilayers; type: biochemical; conditions: 2 μM IP3, 250 nM Ca2+
Method: FIG. 5 illustrates a summary of multiple experiments (mean±SEM) measuring effects of Bcl-2 and peptides on IP3R channel open probability. n=number of individual channels examined. Symbols represent mean±SEM. *p<0.05.
The effects of peptide 2 and purified Bcl-2 on IP3R channel activity were analyzed in planar lipid bilayers under steady-state conditions. Single IP3R type 1 channel activity was visualized as a series of discrete positive current fluctuations in the presence of 2 μM IP3 and 250 nM Ca^2+ in the cis compartment (cytoplasmic side of channel). A significant reduction in single channel activity was observed after adding 0.1 μM purified Bcl-2 to the cytoplasmic face of the IP3R channel, and addition of 10 μM peptide 2 reversed Bcl-2's inhibitory effect on channel activity. Average open probabilities under various conditions were calculated from multiple repeated experiments (FIG. 5). Addition of Bcl-2 reduced IP3R open probability by 11.5-fold to 0.018.

[4] = system: Jurkat cells; assay: Fas-induced Ca2+-independent apoptosis; type: cell-based
[5] = system: Jurkat cells; assay: IP3 ester-induced Ca2+ elevation; type: cell-based; conditions: D-myo InsP3 hexakisbutyryloxymethyl ester
Description: To exclude the possibility that peptide 2 may interfere with the upstream TCR activation pathway, a cell-permeant IP3 ester (D-myo InsP3 hexakisbutyryloxymethyl ester) was used to bypass TCR activation and anti-CD3-induced IP3 generation.

[6] = system: Jurkat cells; assay: anti-CD3-induced apoptosis (apoptotic nuclei); type: cell-based
Method: FIG. 7 illustrates peptide 2 Enhances Anti-CD3-Induced Apoptosis in Bcl-2-Positive Cells (A) Typical apoptotic nuclear morphology (arrow, Hoechst 33342 stain) 24 hr after 5 μg/ml anti-CD3 treatment of Jurkat cells. Scale bars, 10 μm. (B) Bcl-2(−) and Bcl-2(+) WEHI7.2 cells were pre-incubated±60 μM peptides plus Chariot reagent and then incubated with 20 μg/ml anti-CD3 for 24 hr. Symbols represent the percentage of cells (mean±SEM) with apoptotic nuclei in three experiments for Bcl-2(−) and five experiments for Bcl-2(+) cells (200 cells counted per coverslip). (C) Jurkat cells were pre-incubated±60 μM peptides±Chariot reagent and then incubated with 5 μg/ml anti-CD3 for 24 hr. Symbols represent the percentage of cells (mean±SEM) with apoptotic nuclei in five experiments (240 cells counted per coverslip).
Peptide 2 also attenuated Bcl-2's inhibition of anti-CD3-induced apoptosis in Jurkat cells. In preliminary studies (data not shown), we tested several anti-CD3 concentrations. Higher concentrations of anti-CD3 induced high levels of apoptosis that might obscure the effect of the peptide. We therefore used 5 μg/ml anti-CD3, sufficient to induce 20%-30% apoptosis.

With “NVYTEIKCNSLLPLDDIVRV (listed as Homo sapiens) [peptide 2, 20 amino acid peptide, aa 1389-1408 of IP3R subdomain 3a1]” the “enhancement of anti-CD3-induced Ca2+ elevation” value ([1]; Jurkat cells with endogenous Bcl-2 knocked down by siRNA) was “did not enhance”, the “enhancement of anti-CD3-induced Ca2+ elevation” value ([1]; Jurkat cells, 60 μM peptide with Chariot reagent) was “significantly enhanced” and the “effect on intracellular Ca2+ levels” value ([1]; absence of anti-CD3 stimulation (data not shown)) was “did not affect”. For the same sequence, the “effect on Ca2+ elevation” value ([1]; peptide added in the absence of Chariot reagent) was “no effect”, the “enhancement of anti-CD3-induced Ca2+ elevation” value ([2]; Bcl-2(+) WEHI7.2 cells) was 40% and the “effect on anti-CD3-induced Ca2+ elevation” value ([2]; Bcl-2(−) WEHI7.2 cells) was “did not have a significant effect”. For the same sequence, the IP3R open probability ([3]; 10 μM peptide after 0.1 μM purified Bcl-2, Bcl-2 alone 0.018) was 0.16, the “reversal of Bcl-2's inhibitory effect on channel activity” value ([3]; after 0.1 μM purified Bcl-2) was “reversed” and the “enhancement of Fas-induced Ca2+-independent apoptosis” value [4] was “did not enhance”. For the same sequence, the “IP3 ester-induced Ca2+ elevation” value [5] was “enhanced”, the “anti-CD3-induced apoptosis (percentage of apoptotic cells)” value ([6]; 60 μM peptide with Chariot, 5 μg/ml anti-CD3, 24 hr, anti-CD3 alone 20%-30%) was 40%-45% and the “effect on anti-CD3-induced apoptosis” value ([6]; peptide in the absence of Chariot reagent) was “did not have an effect”.
